# Source: article PMC9915956, “Identification of Potent Zika Virus NS5 RNA-Dependent RNA Polymerase Inhibitors Combining Virtual Screening and Biological Assays” (International Journal of Molecular Sciences, 2023)
# pEC50, pIC50: −log10 of the molar value. Like-named read-outs stand apart in the source and are kept apart here.
# Legend:
# [1] = system: ZIKV (SMGC-1); assay: Anti-ZIKV activity by FACS of ZIKV E protein-positive cells; assay type: cell-based; conditions: Zika virus, read-out: EC50 anti-ZIKV activity (reduction of ZIKV E protein-positive cells)
# Procedure: Huh-7 cells were infected with ZIKV (SMGC-1) and incubated with different concentrations of compounds. After 48 h, the cells were fixed and permeabilized, followed by staining with the FITC-anti-ZIKV E protein antibody. When detected by FACS, the FITC intensity in the given cell population reflected the ZIKV E protein-positive cells, indicting the cells infected with ZIKV.
# Huh-7 cells were seeded into 24-well plates and infected with ZIKV (SMGC-1) at a multiplicity of infection (MOI) of 0.2. […] Chloroquine was used as a positive control. Cells were fixed and permeabilized for 20 min using a Fixation/Permeabilization Solution Kit. After washing, the cells were incubated with FITC-anti-ZIKV E protein antibody for 30 min. Then, ZIKV E protein-positive cells were detected in a FACS Analyzer and analyzed by FlowJo (TreeStar, Ashland, OR, USA). The EC50s of the compounds were calculated as the reduction ratio of ZIKV E protein-positive cells over the concentrations of the compounds.
# [2] = system: ZIKV sub-genomic replicon RNA; conditions: Hela cells, single concentration of 10 μM; cited from earlier work
# [3] = system: dengue virus; conditions: by targeting OSBP; read-out: EC50 dengue virus replication; cited from earlier work
# [4] = system: Huh-7 cells; assay: WST-8 cell viability (cytotoxicity) assay; conditions: Huh-7 cells
# Procedure: (§1) The WST-8 assay was used to evaluate the cytotoxicity of the compounds. Huh-7 cells (1 × 10^4 cells/well) were seeded in a 96-well plate and different concentrations of compounds were added the next day. After a 24 h incubation, the supernatant was discarded and WST-8 reagent (1:10 diluted by DMEM) was added. The cell viability was assessed using a Microplate Reader (ELx808, Biotek, North Chesterfield, VA, USA) at 450 nm.
# [5] = WST-8 cell viability (cytotoxicity) assay; conditions: human
# Procedure: as §1
# [6] = system: Huh-7 cells; design: method as in PMID 19760134; conditions: ≤ 10 μM; cited from earlier work
# [7] = molecular target: T1, ZIKV NS5 RdRp (Zika virus, UniProt A0A024B7W1); assay: SPR binding to immobilized RdRp; conditions: CM5 chip, 3.125–50 μM
# Procedure: Thus, SPR assays were carried out. RdRp protein was immobilized on a CM5 sensor chip through amine coupling.
# The SPR was carried out using BIAcore T200 (GE Healthcare, Uppsala, Sweden) at 25 °C. RdRp was diluted by 10 mM sodium acetate (pH 4.5) and then immobilized on a CM5 sensor chip using an NHS/EDC amine-coupling kit in 1× PBS-P running buffer. Different concentrations (3.125–50 μM) of compounds flowed through the sensor chip surface and the RUs was detected. The equilibrium dissociation constant (KD) was fitted using the BIAcore Evaluation Software.
# [8] = molecular target: T1, ZIKV NS5 RdRp; assay: Fluorescence-based alkaline phosphatase-coupled polymerase assay, RdRp enzymatic inhibition; assay type: biochemical; conditions: compounds incubated with RdRp for 30 min; WT-RdRp; read-out: IC50 to inhibit RdRp activity
# Procedure: The activity of RdRp was measured by a fluorescence-based alkaline phosphatase-coupled polymerase assay established previously in our lab. Briefly, RdRp catalyzed the transfer of adenosine 5′-monophosphate from γ-(BBT)-ATP to the RNA chain, generating the byproduct BBTppi. Subsequently, BBTppi was hydrolyzed by alkaline phosphatase to fluorescent BBT (ex/em 430/560 nm).
# The plasmid pET30a-RdRp, constructed in our laboratory, was transformed into E. coli Transetta (DE3) for RdRp expression and purified. The bacteria were grown in ZYM-5052 culture medium. RdRp with the His tag was loaded on a Ni^2+ HisTrap chelating column and then eluted in a buffer containing imidazole in the ÄKTA system. The purified proteins were verified by SDS-PAGE and Western blotting. RdRp activity was analyzed using a fluorescence-based alkaline phosphatase-coupled polymerase assay. The inhibitory effect of the compounds against RdRp was evaluated using the protocol developed in our laboratory.
# T1 sequence (A0A024B7W1 2786-3423): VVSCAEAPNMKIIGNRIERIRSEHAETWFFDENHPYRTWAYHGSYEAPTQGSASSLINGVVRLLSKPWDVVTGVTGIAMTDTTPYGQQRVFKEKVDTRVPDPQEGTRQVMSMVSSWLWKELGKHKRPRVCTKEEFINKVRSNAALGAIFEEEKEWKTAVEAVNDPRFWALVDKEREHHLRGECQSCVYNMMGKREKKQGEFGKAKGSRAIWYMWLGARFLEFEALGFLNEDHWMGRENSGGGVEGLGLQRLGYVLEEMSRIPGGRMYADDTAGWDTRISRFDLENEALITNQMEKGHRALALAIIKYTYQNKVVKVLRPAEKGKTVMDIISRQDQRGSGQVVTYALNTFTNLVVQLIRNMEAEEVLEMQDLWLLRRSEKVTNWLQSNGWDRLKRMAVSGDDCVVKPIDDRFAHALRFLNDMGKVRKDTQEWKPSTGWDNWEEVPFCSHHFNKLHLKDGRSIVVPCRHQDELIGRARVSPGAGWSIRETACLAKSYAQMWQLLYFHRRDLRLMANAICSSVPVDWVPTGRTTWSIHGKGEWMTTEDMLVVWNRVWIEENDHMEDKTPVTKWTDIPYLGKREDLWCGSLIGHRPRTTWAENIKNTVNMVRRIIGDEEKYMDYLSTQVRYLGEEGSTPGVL
compound,measurement,setting,value
"CC[C@@H]([C@H](C)O)n1ncn(-c2ccc(N3CCN(c4ccc(OC[C@@H]5CO[C@@](Cn6cncn6)(c6ccc(F)cc6F)C5)cc4)CC3)cc2)c1=O [POS, Posaconazole]",pEC50,"[1]; Huh-7 cells, ZIKV (SMGC-1) MOI 0.2, 48 h, FACS",6.23
same,Effect on replication of ZIKV sub-genomic replicon RNA (in words),[2],inhibit the replication
same,pEC50,[3],5.39
same,Cytotoxicity (in words) at concentrations used in the anti-ZIKV assay,"[4]; WST-8, 24 h, ≤ 6.4 μM",low
same,CC50 at 24 h,[5]; Huh-7 cells,101 µM
"CCN(CC)CCCC(C)Nc1ccnc2cc(Cl)ccc12 (stereo not shown) [chloroquine, Chloroquine]",pEC50,"[1]; Huh-7, 48 h",5.55
same,Cytotoxicity to Huh-7 cells (in words),[6],no significant cytotoxicity
"CCC(C)n1ncn(-c2ccc(N3CCN(c4ccc(OCC5COC(Cn6cncn6)(c6ccc(Cl)cc6Cl)O5)cc4)CC3)cc2)c1=O (stereo not shown) [ITR, Itraconazole]",Binding to RdRp by SPR (in words),[7],almost no binding signals
same,CC50 at 24 h,[5],> 100 µM
same,pIC50,[8],5.74
"CCCCCCOC(=O)NC(=N)c1ccc(NCc2nc3cc(C(=O)N(CCC(=O)OCC)c4ccccn4)ccc3n2C)cc1 [DAB, Dabigatran etexilate]",pIC50,[8],4.95
"Cc1cc2c(C(C)C)c(O)c(O)c(C=O)c2c(O)c1-c1c(C)cc2c(C(C)C)c(O)c(O)c(C=O)c2c1O [GOS, Gossypol (acetic acid)]",Cytotoxicity (in words) at 5 μM,"[4]; WST-8, concentration of 5 μM",obvious cell toxicity
same,CC50 at 24 h,[5],7.79 µM
